Test results as given in patent US9808469B2, “Antitumor activity of multi-kinase inhibitors in triple negative breast cancer” (ENTRECHEM, S.L, priority 2014, dated 2017).

How the values were obtained:
HS578T cells = assay: Western Blot of DNA damage and cell cycle markers; type: cell-based; conditions: 500 nM, up to 24 h
Method: (§1) Western-blot and phospho-array kits were used for evaluation of signaling intermediates.
(§2) HS578T and BT549 cell lines were grown in DMEM 10% of FBS and at 70% confluence were treated with Formula (III) at 500 nM for 6, 12 and 24 hours. Cells were washed with phosphate-buffered saline (PBS) (137 mM NaCl, 2.7 mM KCl, 8 mM Na2HPO4, 1.5 mM KH2PO4) and lysed in ice-cold lysis buffer (20 mM Tris-HCl [pH 7.0], 140 mM NaCl, 50 mM EDTA, 10% glycerol, 1% Nonidet P-40, 1 μM pepstatin, 1 μg/mL aprotinin, 1 μg/mL leupeptin, 1 mM phenylmethyl sulfonyl fluoride, 1 mM sodium orthovanadate). Lysates were centrifuged at 10000 g at 4° C. for 10 minutes. The protein level in the supernatants was quantified using BCA protein assay (Sigma Aldrich). A total of 50 μg of protein of each sample was used for analysis. Samples were then boiled in electrophoresis sample buffer and placed on 6%-15% sodium dodecyl sulfate-polyacrylamide gel electrophoresis (SDS-PAGE) gels, depending on the molecular weight of the proteins to be analyzed. Briefly, after electrophoresis, proteins in gels were transferred to polyvinylidene difluoride membranes (Millipore Corporation). Membranes were blocked in Tris-buffered saline with Tween (TBST) (100 mM Tris [pH 7.5], 150 mM NaCl, 0.05% Tween 20) containing 1% of bovine serum albumin for 1 h and then incubated overnight with the corresponding antibody. Anti-pS473-AKT and anti-pT308-AKT were purchased from Santa Cruz; Anti-pS6, anti-pSTAT3 and anti-GADPH were purchased from Cell Signalling Technology; Anti-pH3, were purchased from Millipore-Cell Signaling; anti-p-H2AX were purchased from BD Biosciences. After washing with TBST, membranes were incubated with HRP-conjugated anti-mouse or anti-rabbit secondary antibodies (1:5000 dilution) for 1 hour and bands were visualized by using ECL Plus Western Blotting Detection System (GE Healthcare, Buckinghamshire, United Kingdom).

[1] = system: PI3K/mTOR/AKT and JAK/STAT pathway; assay: Western Blot of PI3K/mTOR/AKT and JAK/STAT pathway components; type: cell-based; conditions: 500 nM, up to 24 h
Method: as §1
as §2, with “Anti-pS473-AKT and anti-pT308-AKT were purchased from Santa Cruz; Anti-pS6, anti-pSTAT3 and anti-GADPH were purchased from Cell Signalling Technology; Anti-pH3, were purchased from Millipore-Cell Signaling; anti-p-H2AX were purchased from BD Biosciences. After washing with TBST, membranes were incubated with HRP-conjugated anti-mouse or anti-rabbit secondary antibodies (1:5000 dilution) for 1 hour and bands were visualized by using ECL Plus Western Blotting Detection System (GE Healthcare, Buckinghamshire, United Kingdom).” left out

## C[C@]12O[C@H](C[C@@H](O)[C@H]1O)n1c3ccccc3c3c4c(c5c6ccccc6n2c5c31)C(=O)NC4=O [Formula (III)]
HS578T cells
  Cyclin B and p-Cdc2 levels: increase
  cyclin D and Cyclin A levels: down-regulated
  phosphorylated levels of γH2AX: increase in the phosphorylated levels of γH2AX in a time dependent manner
  phosphorylation of p53 and chk2: induced the phosphorylation of p53 and chk2
[1]
  phosphorylation of AKT, p70 S6 and STAT3: inhibits components of the PI3K/mTOR/AKT and JAK/STAT pathway
